Assays:
[1] = tested on: primary osteoarthritis; settings: guinea pig model of primary osteoarthritis; cited from earlier work
[2] = tested on: osteoarthritis or similar complaints; settings: 24 dogs, 5-15 years, 0.20 mg/kg intravenous during about 15 min
Method: (§1) The following experiments were performed during November 2015-May 2016. In various veterinarian locations in the Netherlands the animals were treated or occasionally the animals were treated on a farm in a stable.
(§2) Typical symptoms for dogs and other animals mentioned in the description are lameness, stiffness, especially in the morning, after a stroll and when starting, moving with relatively short steps, a preference for lying down, no stamina, various difficulties/limitations, such as in rising or lying down, in keeping up walking pace, rising a leg, jumping on a couch, tail between the legs and squealing from pain.

[3] = tested on: osteoarthritis or similar complaints
Method: as §1
For cats it is preferred to provide the dosage in a subcutaneous manner.

[4] = tested on: osteoarthritis in the SI joint; settings: one donkey, treated in line with the horses
Method: as §1
One donkey was treated in line with the horses above.

[5] = tested on: hip osteoarthritis; settings: oral 35 mg once a week, 2 years; cited from earlier work
[6] = tested on: various disorders and disease; assay: Present bisphosphonates tested on various naturally occurring disorders and diseases in mammals; design: species or system mammals (horses, donkeys, cows, dogs and cats); settings: dog, in vivo
From the text: A repetition may be given after 4-12 months. […] In general it is noted that timing of potential benefit of antiresorptives in OA might be important. The greatest benefit in the prior art is typically seen very early in the disease. So to maintain the normal attitude mode, typically once per 1-12 month, preferably once per 2-6 months, such as once per 3-5 month, or put different 1-6 times per year, preferably 2-6 times per year, such as 3-4 times per year.
For better understanding of these diseases and disorders, the following section is added, such as to categorize these.
as §2

[7] = tested on: osteoarthritis; settings: 1 bull, 6 years, 0.2 mg/kg intravenous
Method: as §1

[8] = tested on: knee osteoarthritis; settings: 2-year period; cited from earlier work

Question: For `NCCCC(O)(P(=O)(O)O)P(=O)(O)O.O.O.O` [Alendronate, [4-amino-1-hydroxy-1-(hydroxy-oxido-phosphoryl)-butyl]phosphonic acid trihydrate], which “effect on disease progression” value [1] is on record?
Answer: Risedronate but not Alendronate slows disease progression

Question: And the “complaints of dogs after treatment” value [2]?
Answer: All dogs have significantly less complaints or were free of complaints within a few weeks

Question: And the “cats free of complaints” value ([3]; eight cats, 12-18 years, 0.2 mg/kg subcutaneous or intravenous, one cat still had complaints (other medicines withdrawn))?
Answer: Seven cats were free of complaints within a few weeks

Question: And the “cats showing a good response (substantially free of complaints)” value ([3]; later experiments on more cats)?
Answer: more than 75%

Question: And the “result of treatment in donkey” value [4]?
Answer: results here were fine

Question: What about the “clinical efficacy on pain” value [5] of the same compound?
Answer: had clinical efficacy of pain reduction

Question: And the “effect on structural progression of hip osteoarthritis” value [5]?
Answer: failed to show preventive effects for structural progression of hip osteoarthritis

Question: And the “outcome of testing on various disorders and disease” value (from here on “outcome of testing”) [6]?
Answer: tested on various disorders and disease with success

Question: What about the “bull free of complaints” value [7] of the same compound?
Answer: free of complaints within a month

Question: For `CCCCCN(C)CCC(O)(P(=O)(O)O)P(=O)(O)O` [Ibandronate], which “outcome of testing” value [6] is on record?
Answer: tested on various disorders and disease with success

Question: Which “outcome of testing” value [6] does the source give for `NCCCCCC(O)(P(=O)(O)O)P(=O)(O)O` [Nerodronate] here?
Answer: tested on various disorders and disease with success

Question: For `CN(C)CCC(O)(P(=O)(O)O)P(=O)(O)O` [Olpadronate], which “outcome of testing” value [6] is on record?
Answer: tested on various disorders and disease with success

Question: Which “outcome of testing” value [6] does the source give for `NCCC(O)(P(=O)(O)O)P(=O)(O)O` [Pamidronate] here?
Answer: tested on various disorders and disease with success

Question: With `O=P(O)(O)C(O)(Cc1cccnc1)P(=O)(O)O` [Risedronate] as the compound, how does the “effect on disease progression” value [1] read?
Answer: slows disease progression

Question: What about the “symptom improvement or progression of radiographic osteoarthritis vs placebo” value [8] of the same compound?
Answer: no significant differences in symptom improvement or progression of radiographic osteoarthritis

Question: What about the “outcome of testing” value [6] of the same compound?
Answer: tested on various disorders and disease with success

Question: For `O=P(O)(O)C(O)(Cn1ccnc1)P(=O)(O)O` [Zoledronate], which “outcome of testing” value [6] is on record?
Answer: tested on various disorders and disease with success

— patent publication US20210008083A1, “USE OF A BISPHOSPHONATE SALT IN A MEDICAMENT FOR A NATURALLY OCCURRING DISEASE/DISORDER IN A MAMMAL” (Ostafit B.V., priority 2016, published 2021)
